Biological target: T1, human TrkA (Homo sapiens, UniProt P04629)
T1 construct: purchased Lifetechnologies PV3144
Assay: Test Example 2-2: Human TrkA Inhibition Assay
Type: biochemical
Conditions: class symbols, read-out: IC50_nM
Procedure: Seven point five μL per well of human TrkA (PV3144, Lifetechnologies, final concentration: 1 nmol/L) suspended in the assay buffer (100 mmol/L 4-(2-hydroxyethyl)-1-piperazineethanesulfonic acid (HEPES), 10 mmol/L magnesium chloride, 0.003 vol % Brij-35, 0.004 vol % Tween20 and 1 mmol/L dithiothreitol (DTT)) was applied in a 384 well plate and the plate was pre-incubated for 15 min at room temperature with 0.4 μL of each compound (final concentration: […]) dissolved in DMSO. Then, fluorescent substrate (FL-peptide 27, 760424, PerkinElmer, final concentration: 1.5 μmol/L) and ATP (final concentration […]) dissolved in the assay buffer was added in each well. After the incubation of 120 min at 37° C., fifteen μL of termination buffer (100 mmol/L HEPES, 40 mmol/L ethylenediaminetetraacetic acid (EDTA), 10 mmol/L magnesium chloride, 0.003 vol % Brij-35, 0.004 vol % Tween20, 1 mmol/L DTT and 0.16 vol % Coating Reagent 3) was added in each well to stop the enzyme reaction. Fluorescent intensities (FI) of phosphorylated and non-phosphorylated fluorescent substrates were measured by LabChip EZReader II (Caliper LifeSciences, Inc.), and conversion ratio (CR) was calculated by the following formula-1. The CR in the well applied with DMSO alone was used as a negative control and the CR in the well without applying TrkA was used as a positive control. The inhibitory effect of each compound on TrkA phosphorylation was calculated by the following formula-2. CR (%)=(FI of phosphorylated substrate/(FI of phosphorylated substrate+FI of non-phosphorylated substrate))×100 (Formula-1) Phosphorylation inhibition (%)=(1−(CR with compound treatment−CR of positive control)/(CR of negative control−CR of positive control))×100 (Formula-2) Inhibitory effect on TrkA phosphorylation (%)=(1−(CR in compound treated well−CR in positive control)/(CR in negative control−CR in positive control))×100.
The 50/o inhibitory concentration (IC50) was determined by the logistic regression using the inhibition data in 10 points at a range of 2 μmol/L to 0.1 nmol/L or 200 μmol/L to 10 nmol/L).

T1 sequence (P04629 33-796): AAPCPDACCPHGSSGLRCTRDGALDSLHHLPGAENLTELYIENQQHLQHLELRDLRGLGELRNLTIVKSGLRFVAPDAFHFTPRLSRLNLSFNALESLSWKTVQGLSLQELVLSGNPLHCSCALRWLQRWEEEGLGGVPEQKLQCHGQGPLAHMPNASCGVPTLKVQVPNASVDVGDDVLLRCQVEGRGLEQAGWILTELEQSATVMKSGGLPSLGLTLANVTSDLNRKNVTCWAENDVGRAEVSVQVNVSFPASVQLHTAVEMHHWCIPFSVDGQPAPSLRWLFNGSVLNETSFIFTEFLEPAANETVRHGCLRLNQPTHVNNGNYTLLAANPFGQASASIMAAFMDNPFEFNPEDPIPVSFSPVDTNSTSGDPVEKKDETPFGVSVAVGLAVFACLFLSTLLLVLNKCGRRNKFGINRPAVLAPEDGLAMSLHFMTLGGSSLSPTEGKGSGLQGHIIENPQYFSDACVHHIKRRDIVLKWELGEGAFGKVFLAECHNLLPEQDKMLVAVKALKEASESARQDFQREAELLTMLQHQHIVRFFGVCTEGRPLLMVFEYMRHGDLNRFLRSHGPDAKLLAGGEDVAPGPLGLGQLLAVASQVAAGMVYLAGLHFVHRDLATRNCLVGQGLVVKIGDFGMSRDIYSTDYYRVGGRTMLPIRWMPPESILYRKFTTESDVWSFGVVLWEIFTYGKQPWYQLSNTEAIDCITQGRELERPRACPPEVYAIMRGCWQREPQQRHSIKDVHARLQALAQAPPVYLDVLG

Row | IC50 [µM] | SMILES
1 | < 0.1 | COCC[C@@H]1C[C@@H](NC(=O)Nc2c(C)c(-c3cnn(C)c3)nn2-c2ccccc2)[C@H](c2ccc(F)cc2)N1C [Compound I-275]
2 | 0.1 to 1 | COCC(O)C1C[C@@H](NC(=O)Nc2c(C)c(-c3cnn(C)c3)nn2-c2ccccc2)[C@H](c2ccccc2)C1 (stereo partly shown) [Compound I-271]
3 | 0.1 to 1 | COCCN1C[C@@H](NC(=O)Nc2c(C)c(-c3cnn(C)c3)nn2-c2ccccc2)[C@H](c2ccc3c(c2)COC3)C1 (racemic) [Compound I-274]

Same assay, conditions: human TrkA 1 nmol/L, 120 min at 37° C., read-out: TrkA inhibition IC50

Row | IC50 [µM] | SMILES
4 | 0.00071 | Cc1c(-c2cnn(C)c2)nn(-c2ccccc2)c1NC(=O)N[C@@H]1CN(Cc2ccc(Cl)o2)C[C@H]1c1ccc(F)c(F)c1 [Compound I-202]
5 | 0.12 | Cc1c(-c2cnn(C)c2)nn(-c2ccccc2)c1NC(=O)N[C@@H]1C[C@@H](Oc2ccncc2)C[C@H]1c1ccccc1 (racemic) [Compound I-225]
6 | 0.0009 | COCC[C@@H]1C[C@@H](NC(=O)Nc2c(C)c(-c3cnn(C)c3)nn2-c2ccccc2)[C@H](c2ccccc2)[C@H]1C [Compound I-241]
7 | 0.018 | Cc1c(-c2cnn(C)c2)nn(-c2ccccc2)c1NC(=O)N[C@@H]1CN(CCOC(F)F)C[C@H]1c1ccccc1 (racemic) [Compound I-248]
8 | 0.0013 | COCC[C@@H]1C[C@@H](NC(=O)Nc2c(C)c(-c3cnc(CO)nc3)nn2-c2ccccc2)[C@H](c2ccccc2)C1 [Compound I-269]
9 | 0.00067 | COCC[C@@H]1C[C@@H](NC(=O)Nc2c(C)c(C3=CCN(C(C)=O)CC3)nn2-c2ccccc2)[C@H](c2ccccc2)C1 [Compound I-270]

Same assay, conditions: human TrkA inhibition, class symbols A/B/C, read-out: IC50_nM

Row | IC50 [µM] | SMILES
10 | < 0.1 | COCC[C@H]1C[C@@H](NC(=O)Nc2c(C)c(-c3cnn(C)c3)nn2-c2ccccc2)[C@H](c2ccccc2)N1C [Compound I-246]
11 | < 0.1 | COCCC1C[C@@H](NC(=O)Nc2c(C)c(-c3cnn(C)c3)nn2-c2ccccc2)[C@H](c2ccc(F)c(F)c2)C1 (stereo partly shown) [Compound I-187]
12 | > 1 | COCCC1C[C@@H](NC(=O)Nc2c(C)c(-c3cnn(C)c3)nn2-c2ccccc2)[C@H](c2ccc(F)c(F)c2)N1Cc1ccccc1 (stereo partly shown) [Compound I-196]
13 | > 1 | COCC(OC)[C@H]1C[C@@H](NC(=O)Nc2c(C)c(-c3cnn(C)c3)nn2-c2ccccc2)[C@H](c2ccc(F)c(F)c2)N1C (stereo partly shown) [Compound I-231]
14 | > 1 | Cc1c(-c2cnn(C)c2)nn(-c2ccccc2)c1NC(=O)N[C@@H]1CN(Cc2ccc(C(=O)O)o2)C[C@H]1c1ccc(F)c(F)c1 [Compound I-188]
15 | < 0.1 | Cc1ccc(CN2C[C@@H](NC(=O)Nc3c(C)c(-c4cnn(C)c4)nn3-c3ccccc3)[C@H](c3ccc(F)c(F)c3)C2)o1 [Compound I-193]
16 | 0.1 to 1 | Cc1cc(CN2C[C@@H](NC(=O)Nc3c(C)c(-c4cnn(C)c4)nn3-c3ccccc3)[C@H](c3ccc(F)c(F)c3)C2)oc1C [Compound I-203]
17 | > 1 | CCOC(=O)C(COC)[C@@H]1C[C@@H](NC(=O)Nc2c(C)c(-c3cnn(C)c3)nn2-c2ccccc2)[C@H](c2ccccc2)C1 (mixture of isomers) [Compound I-238]
18 | 0.1 to 1 | COCCN1C[C@@H](NC(=O)Nc2c(C)c(-c3cnn(C)c3)nn2-c2ccccc2)[C@H](c2cccc(C=O)c2)C1 (racemic) [Compound I-230]
19 | < 0.1 | CCOCCN1C[C@@H](NC(=O)Nc2c(C)c(-c3cnn(C)c3)nn2-c2ccccc2)[C@H](c2ccc(F)c(F)c2)C1 [Compound I-249]
20 | < 0.1 | COCC[C@@H]1C[C@@H](NC(=O)Nc2c(C)c(C3=CCNCC3)nn2-c2ccccc2)[C@H](c2ccc(F)c(F)c2)N1 [Compound I-247]
21 | 0.1 to 1 | Cc1c(-c2cnn(C)c2)nn(-c2ccccc2)c1NC(=O)N[C@@H]1CN(Cc2ccccn2)C[C@H]1c1ccc(F)c(F)c1 [Compound I-240]
22 | < 0.1 | Cc1c(-c2cnn(C)c2)nn(-c2ccccc2)c1NC(=O)N[C@@H]1CN(Cc2cc(Br)co2)C[C@H]1c1ccc(F)c(F)c1 [Compound I-189]
23 | > 1 | CCO[C@@H]1C[C@@H](NC(=O)Nc2c(C)c(-c3cnn(C)c3)nn2-c2ccccc2)[C@H](c2ccccc2)C1 (racemic) [Compound I-211]
24 | < 0.1 | COCC[C@@H]1C[C@@H](NC(=O)Nc2c(C)c(C3=CCN(C(=O)OC(C)(C)C)CC3)nn2-c2ccccc2)[C@H](c2ccc(F)c(F)c2)N1C [Compound I-259]
25 | > 1 | Cc1c(-c2cnn(C)c2)nn(-c2ccccc2)c1NC(=O)N[C@@H]1C[C@@H](Oc2ccccn2)C[C@H]1c1ccccc1 (racemic) [Compound I-223]
26 | > 1 | COCCC1C[C@@H](NC(=O)Nc2cc(-c3ccc(C(=O)OC)cc3)nn2C)[C@H](c2ccccc2)C1 (relative stereo) [Compound I-181]
27 | < 0.1 | COCCC1C[C@@H](NC(=O)Nc2cc(C(F)(F)F)cnc2-c2ccccc2)[C@H](c2ccccc2)C1 (relative stereo) [Compound I-201]
28 | 0.1 to 1 | COCCN1C[C@@H](NC(=O)Nc2c(C)c(-c3cnn(C)c3)nn2-c2ccccc2)[C@H](c2ccc3occc3c2)C1 (racemic) [Compound I-232]
29 | 0.1 to 1 | COCCC1C[C@@H](NC(=O)Nc2c(C)c(OCC(C)(C)O)nn2-c2ccccc2)[C@H](c2ccccc2)C1 (relative stereo) [Compound I-182]

Row | IC50 [µM] | SMILES
30 | < 0.1 | Cc1c(-c2cnn(C)c2)nn(-c2ccccc2)c1NC(=O)N[C@@H]1CN(Cc2csc(Cl)n2)C[C@H]1c1ccc(F)c(F)c1 [Compound I-204]
31 | < 0.1 | COCCC1C[C@@H](NC(=O)Nc2c(C)c(-c3ccc(C(=O)O)cc3)nn2-c2ccccc2)[C@H](c2ccccc2)C1 (stereo partly shown) [Compound I-207]
32 | > 1 | COCC(COS(C)(=O)=O)[C@@H]1C[C@@H](NC(=O)Nc2c(C)c(-c3cnn(C)c3)nn2-c2ccccc2)[C@H](c2ccccc2)C1 (stereo partly shown) [Compound I-245]
33 | 0.1 to 1 | COCC(c1ccco1)N1C[C@@H](NC(=O)Nc2c(C)c(-c3cnn(C)c3)nn2-c2ccccc2)[C@H](c2ccc(F)c(F)c2)C1 (stereo partly shown) [Compound I-186]
34 | 0.1 to 1 | C=C[C@@H]1C[C@@H](NC(=O)Nc2c(C)c(-c3cnn(C)c3)nn2-c2ccccc2)[C@H](c2ccc(F)c(F)c2)N1 [Compound I-224]
35 | 0.1 to 1 | COCC[C@@H]1C[C@@H](NC(=O)Nc2c(C)c(-c3cnn(C)c3)nn2-c2ccccc2)[C@H](c2ccccc2)[C@H]1CO [Compound I-226]
36 | 0.1 to 1 | COC(=O)C(c1ccco1)N1C[C@@H](NC(=O)Nc2c(C)c(-c3cnn(C)c3)nn2-c2ccccc2)[C@H](c2ccc(F)c(F)c2)C1 (stereo partly shown) [Compound I-177]
37 | < 0.1 | COCC(O)[C@H]1C[C@@H](NC(=O)Nc2c(C)c(-c3cnn(C)c3)nn2-c2ccccc2)[C@H](c2ccc(F)c(F)c2)N1C (stereo partly shown) [Compound I-229]
38 | 0.1 to 1 | CCOc1nn(-c2ccccc2)c(NC(=O)N[C@@H]2C[C@@H](CCOC)[C@H](CO)[C@H]2c2ccccc2)c1C [Compound I-227]
39 | 0.1 to 1 | Cc1c(-c2cnn(C)c2)nn(-c2ccccc2)c1NC(=O)N[C@@H]1CN(Cc2ccc(CO)o2)C[C@H]1c1ccc(F)c(F)c1 [Compound I-191]
40 | < 0.1 | COCC=C1C[C@@H](NC(=O)Nc2c(C)c(-c3cnn(C)c3)nn2-c2ccccc2)[C@H](c2ccccc2)C1 [Compound I-261]
41 | 0.1 to 1 | COCCC1C[C@@H](NC(=O)Nc2cc(-c3ccc(C)nc3)nn2C)[C@H](c2ccccc2)C1 (stereo partly shown) [Compound I-220]
42 | > 1 | Cc1c(-c2cnn(C)c2)nn(-c2ccccc2)c1NC(=O)N[C@@H]1CN(C(C)C)C[C@H]1c1ccc(F)c(F)c1 [Compound I-194]
43 | < 0.1 | COCC[C@@H]1C[C@@H](NC(=O)Nc2c(C)c(C3=CCN(C(=O)OC(C)(C)C)CC3)nn2-c2ccccc2)[C@H](c2ccccc2)C1 [Compound I-265]
44 | < 0.1 | COCC[C@@H]1C[C@@H](NC(=O)Nc2c(C)c(-c3cnn(C)c3)nn2-c2ccccc2)[C@H](c2ccccc2)[C@H]1C(F)F [Compound I-253]
45 | > 1 | COCCC1C[C@@H](NC(=O)Nc2cc(-c3cnc(C)nc3)nn2C)[C@H](c2ccccc2)C1 (stereo partly shown) [Compound I-219]
46 | 0.1 to 1 | COCC(C(=O)OC)[C@@H]1C[C@@H](NC(=O)Nc2c(C)c(-c3cnn(C)c3)nn2-c2ccccc2)[C@H](c2ccccc2)C1 (mixture of isomers) [Compound I-244]
47 | > 1 | COCC(C(=O)OC)[C@@H]1C[C@@H](NC(=O)Nc2c(C)c(-c3cnn(C)c3)nn2-c2ccccc2)[C@H](c2ccccc2)C1 (mixture of isomers) [Compound I-243]
48 | < 0.1 | CCN1C(CCOC)C[C@@H](NC(=O)Nc2c(C)c(-c3cnn(C)c3)nn2-c2ccccc2)[C@@H]1c1ccc(F)c(F)c1 (stereo partly shown) [Compound I-178]
49 | 0.1 to 1 | COCCN1C[C@@H](NC(=O)Nc2c(C)c(-c3cnn(C)c3)nn2-c2ccccc2)[C@H](c2ccccc2)[C@H]1CF [Compound I-251]
